Results as given in US20230338531A1, “COMPOSITIONS AND USES OF CD45 TARGETED CHIMERIC ANTIGEN RECEPTOR MODIFIED T CELLS” (City of Hope, priority 2020, published 2023).

Experiments:
[1] = system: iCasp9-CD45-CAR lentivirus transduced HT1080 cells; assay: Induced cell depletion by iCasp9 safety switch; format: cell-based; conditions: 100 μM, 24h, normalized to non-treated group
Method: To test the effects of a suicide switch as a safety precaution, experiments were conducted to investigate the induced cell depletion effect of rimiducid on iCasp9-CD45-CAR lentivirus transduced cells. iCasp9 can be activated by a specific chemical inducer of dimerization (CID) such as rimiducid, leading to efficient elimination of iCasp9 engineered cell.
The order of iCaspase 9 and CD45 scFv components can be switched (e.g., promoter-CD45CAR-T2A-iCaspase9-etc). HT1080 cells were transduced by lentivirus. […] Transduced HT1080 cells were seeded in 24 well plate and treated with 100 μM ramiducid for 24h normalized and compared to non-treated group, and the relative survival cell number was quantified (FIG. 10C). Treating the iCasp9-CD45-CAR cells with ramiducid reduced cell survival to 36% (FIG. 10C).

PTPRC (CD45) gene = assay: CD45 protein expression after PTPRC (CD45) gene knockout by CRISPR/Cas9; format: cell-based; conditions: T cells after CRISPR/cas9 mediated CD45KO vs wild type
Text: FIGS. 11A-11B show CD45 protein expression profile after PTPRC (CD45) gene knockout by CRISPR/Cas9 gene editing.
Cell Isolation, CD45 gene editing, CD45-CAR Lentiviral Transduction, and Ex Vivo Expansion_Leukapheresis products were obtained from consented research participants (healthy donors) under protocols approved by the City of Hope Internal Review Board (IRB). On the day of leukapheresis, peripheral blood mononuclear cells (PBMC) were isolated by density gradient centrifugation over Ficoll-Paque (GE Healthcare) followed by multiple washes in PBS/EDTA (Miltenyi Biotec). Cells were rested overnight at room temperature (RT) on a rotator, and subsequently washed and resuspended in X-VIVO T cell medium (Lonza) containing 10% FBS (complete X-VIVO). Up to 5.0×10^9 PBMC were incubated with anti-CD14 and anti-CD25 microbeads (Miltenyi Biotec) for 30 min at RT and magnetically depleted using the CliniMACS® system (Miltenyi Biotec) according to the manufacturer's protocol and these were termed depleted PBMCs (dPBMC). dPBMC were frozen in CryoStor® CS5 (StemCell Technologies) until further processing. […]
Experiments were then conducted to quantify the CD45 protein expression on wild type and CD45 knock out T cells after PTPRC (CD45) gene knockout by CRISPR/Cas9 gene editing. hCD45gRNA #3_E12, […] […]

Molecule	relative survival cell number [1]	CD45 expression (flow cytometry, MFI) (PTPRC (CD45) gene)
CC[C@H](C(=O)N1CCCC[C@H]1C(=O)O[C@H](CCc1ccc(OC)c(OC)c1)c1cccc(OCC(=O)NCCNC(=O)COc2cccc([C@@H](CCc3ccc(OC)c(OC)c3)OC(=O)[C@@H]3CCCCN3C(=O)[C@@H](CC)c3cc(OC)c(OC)c(OC)c3)c2)c1)c1cc(OC)c(OC)c(OC)c1 [ramiducid]	36%	
CUUCUACAAAAAAUAAUCUG (SEQ ID NO: 39) (listed as RNA, chemistry not given here) [hCD45gRNA #3_E12, gRNA targeting PTPRC exon 12]		decreasing expression of CD45
